Active and inactive are the calls of the source. The calls are words filed in the database; no cut-off is given here. Residues, ends and D or L forms follow the SMILES beside them. *: point of attachment. X1 = O=C(C*)NCCOCCOCC(=O)Nc1ccc2[nH]c(=O)n(C3CCN(Cc4ccc(-c5nc6cc[nH]c(=O)c6cc5-c5ccccc5)cc4)CC3)c2c1
Legend:
[1] = target: T1, AKT1/PPP1CA (Homo sapiens) (UniProt P62136+P31749); assay: Induction of PPI-mediated AKT dephosphorylation in human LnCaP cells at 0.1 to 10 uM incubated for 2 hrs by Western blot analysis; type: cell-based
[2] = target: T1, AKT1/PPP1CA (Homo sapiens); assay: Induction of PPI (unknown origin)-mediated pAKT (T308) (unknown origin) dephosphorylation at 0.25 to 10 uM incubated for 1 hr by Western blot analysis; type: protein assay
[3] = target: T1, AKT1/PPP1CA (Homo sapiens); assay: Induction of PPI-mediated AKT dephosphorylation in human LnCaP cells assessed as increase in AKT T308 dephosphorylation at 10 uM incubated for 8 hrs by Western blot analysis; type: cell-based
[4] = target: T1, AKT1/PPP1CA (Homo sapiens); assay: Induction of PPI-mediated AKT dephosphorylation in human LnCaP cells assessed as increase in AKT S473 dephosphorylation at 10 uM incubated for 8 hrs by Western blot analysis; type: cell-based
[5] = target: T1, AKT1/PPP1CA (Homo sapiens); assay: Induction of PPI-mediated AKT dephosphorylation in human LnCaP cells assessed as increase in AKT dephosphorylation at 50 uM incubated for 8 hrs by Western blot analysis; type: cell-based
[6] = test system: HCC827; assay: Induction of dephosphorylation of EGFR Y1068 in human HCC827 cells at 10 uM incubated for 8 hrs by Western blot analysis; type: functional, cell-based
[7] = target: EGFR/PPP1CA (Homo sapiens) (UniProt P00533+P62136); assay: Induction of PPI-mediated EGFR dephosphorylation in human HCC827 cells transfected with human Halo/FLAG-tagged PP1CA assessed as increase in EGFR Y1068 dephosphorylation at 10 uM incubated for 8 hrs by Western blot analysis; type: cell-based
[8] = target: T1, AKT1/PPP1CA (Homo sapiens); assay: Induction of PPI-mediated AKT dephosphorylation in human MCF7/neo HER2 cells assessed as increase in AKT T308dephosphorylation at 10 uM incubated for 8 hrs by Western blot analysis; type: cell-based
[9] = target: T1, AKT1/PPP1CA (Homo sapiens); assay: Induction of PPI-mediated AKT dephosphorylation in human PC3 cells assessed as increase in AKT T308 dephosphorylation at 10 uM incubated for 8 hrs by Western blot analysis; type: cell-based
[10] = target: T1, AKT1/PPP1CA (Homo sapiens); assay: Induction of PPI-mediated AKT dephosphorylation in human LnCaP cells assessed as reduction in S6 phosphorylation at 10 uM incubated for 8 hrs by Western blot analysis; type: cell-based
[11] = target: T1, AKT1/PPP1CA (Homo sapiens); assay: Induction of PPI-mediated AKT dephosphorylation in human MCF7/neo HER2 cells assessed as increase in AKT […] dephosphorylation at 10 uM incubated for 8 hrs by Western blot analysis; type: cell-based
[12] = target: T1, AKT1/PPP1CA (Homo sapiens); assay: Induction of PPI-mediated AKT dephosphorylation in human PC3 cells assessed as increase in AKT S473 dephosphorylation at 10 uM incubated for 8 hrs by Western blot analysis; type: cell-based
[13] = target: T1, AKT1/PPP1CA (Homo sapiens); assay: Induction of PPI-mediated AKT dephosphorylation in human LnCaP cells assessed as increase in AKT T308 dephosphorylation at 10 uM incubated for 8 hrs in presence of PPI siRNA by Western blot analysis; type: cell-based
[14] = target: T1, AKT1/PPP1CA (Homo sapiens); assay: Induction of PPI-mediated AKT dephosphorylation in human LnCaP cells assessed as increase in AKT T308 dephosphorylation at 10 uM incubated for 6 and 8 hrs by Western blot analysis; type: cell-based
[15] = target: T1, AKT1/PPP1CA (Homo sapiens); assay: Induction of PPI-mediated AKT dephosphorylation in human LnCaP cells transfected with human Halo/FLAG-tagged PP1CA at 10 uM incubated for 8 hrs by Western blot analysis; type: cell-based
[16] = target: T1, AKT1/PPP1CA (Homo sapiens); assay: Induction of PPI-mediated AKT dephosphorylation in human MCF7/neo HER2 cells transfected with human Halo/FLAG-tagged PP1CA at 10 uM incubated for 8 hrs by Western blot analysis; type: cell-based
[17] = target: T1, AKT1/PPP1CA (Homo sapiens); assay: Induction of PPI-mediated AKT dephosphorylation in human PC3 cells transfected with human Halo/FLAG-tagged PP1CA at 10 uM incubated for 8 hrs by Western blot analysis; type: cell-based
[18] = target: T1, AKT1/PPP1CA (Homo sapiens); assay: Induction of PPI (unknown origin)-mediated pAKT (T308) (unknown origin) dephosphorylation incubated for 1 hr by Western blot analysis; type: protein assay

T1 sequence (P31749 whole entry, looked up): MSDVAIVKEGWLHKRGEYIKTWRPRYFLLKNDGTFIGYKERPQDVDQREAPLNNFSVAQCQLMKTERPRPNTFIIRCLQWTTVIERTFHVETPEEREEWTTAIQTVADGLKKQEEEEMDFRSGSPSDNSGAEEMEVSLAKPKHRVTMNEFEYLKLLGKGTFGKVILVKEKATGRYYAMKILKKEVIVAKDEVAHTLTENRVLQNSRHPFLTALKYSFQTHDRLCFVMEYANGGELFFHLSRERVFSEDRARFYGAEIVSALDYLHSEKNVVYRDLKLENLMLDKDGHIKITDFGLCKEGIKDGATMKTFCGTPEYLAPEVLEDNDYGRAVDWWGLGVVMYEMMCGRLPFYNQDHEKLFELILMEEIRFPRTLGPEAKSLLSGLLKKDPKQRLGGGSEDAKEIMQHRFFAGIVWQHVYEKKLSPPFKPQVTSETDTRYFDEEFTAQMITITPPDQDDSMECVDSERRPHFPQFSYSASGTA
T1 sequence (P62136 whole entry, looked up): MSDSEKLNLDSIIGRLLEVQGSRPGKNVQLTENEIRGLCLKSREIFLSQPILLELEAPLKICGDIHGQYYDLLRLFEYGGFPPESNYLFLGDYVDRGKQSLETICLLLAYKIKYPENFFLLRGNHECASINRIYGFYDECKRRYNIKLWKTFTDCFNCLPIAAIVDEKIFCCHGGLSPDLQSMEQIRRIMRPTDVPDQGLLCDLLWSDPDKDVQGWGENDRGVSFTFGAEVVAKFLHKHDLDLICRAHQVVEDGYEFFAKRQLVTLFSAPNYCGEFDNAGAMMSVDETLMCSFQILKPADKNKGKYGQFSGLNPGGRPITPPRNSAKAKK
Sequence of EGFR/PPP1CA (Homo sapiens) (P00533 whole entry, looked up): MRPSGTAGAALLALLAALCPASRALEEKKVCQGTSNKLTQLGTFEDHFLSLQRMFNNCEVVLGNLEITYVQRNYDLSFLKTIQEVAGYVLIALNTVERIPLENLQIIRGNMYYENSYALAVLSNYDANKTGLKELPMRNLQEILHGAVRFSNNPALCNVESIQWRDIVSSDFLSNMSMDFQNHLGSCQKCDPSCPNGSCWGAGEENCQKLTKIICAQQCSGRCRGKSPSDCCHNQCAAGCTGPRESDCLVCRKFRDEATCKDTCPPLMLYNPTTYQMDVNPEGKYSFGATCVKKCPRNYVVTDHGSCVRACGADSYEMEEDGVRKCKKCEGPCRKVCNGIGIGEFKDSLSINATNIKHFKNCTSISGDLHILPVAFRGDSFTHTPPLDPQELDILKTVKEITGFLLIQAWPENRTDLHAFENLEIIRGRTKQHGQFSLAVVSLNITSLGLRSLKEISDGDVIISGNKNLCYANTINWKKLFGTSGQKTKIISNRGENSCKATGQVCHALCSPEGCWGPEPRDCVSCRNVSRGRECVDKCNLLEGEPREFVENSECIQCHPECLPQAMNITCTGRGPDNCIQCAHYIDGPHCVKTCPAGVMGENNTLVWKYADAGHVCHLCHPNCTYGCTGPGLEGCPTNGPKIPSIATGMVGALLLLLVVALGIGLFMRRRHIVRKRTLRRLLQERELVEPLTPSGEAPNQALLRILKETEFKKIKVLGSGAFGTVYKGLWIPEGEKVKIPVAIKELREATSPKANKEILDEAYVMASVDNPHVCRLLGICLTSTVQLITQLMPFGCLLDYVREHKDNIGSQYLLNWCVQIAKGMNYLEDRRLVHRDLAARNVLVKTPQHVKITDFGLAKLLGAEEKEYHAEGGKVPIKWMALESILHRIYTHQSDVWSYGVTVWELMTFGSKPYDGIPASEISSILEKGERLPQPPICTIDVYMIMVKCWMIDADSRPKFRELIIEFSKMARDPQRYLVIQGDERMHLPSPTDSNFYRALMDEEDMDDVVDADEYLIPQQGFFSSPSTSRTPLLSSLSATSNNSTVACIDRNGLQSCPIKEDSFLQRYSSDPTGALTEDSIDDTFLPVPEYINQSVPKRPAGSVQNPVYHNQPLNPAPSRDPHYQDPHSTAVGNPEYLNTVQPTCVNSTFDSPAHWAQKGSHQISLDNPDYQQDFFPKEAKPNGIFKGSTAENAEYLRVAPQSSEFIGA
Sequence of EGFR/PPP1CA (Homo sapiens) (P62136 whole entry, looked up): as the sequence (P62136 whole entry, looked up) above

For `CC[C@H](C)[C@H](NC(=O)[C@@H](NC(=O)[C@H](CCC(=O)O)NC(=O)[C@H](C)NC(=O)[C@H](C)NC(=O)[C@H](CCC(=O)O)NC(=O)[C@H](C)NC(=O)[C@H](Cc1ccccc1)NC(=O)[C@@H](NC(=O)[C@@H](NC(=O)[C@H](CCCNC(=N)N)NC(=O)[C@H](C)NC(=O)[C@H](CC(N)=O)NC(=O)[C@H](CCCCN)NC(=O)[C@H](CCCNC(=N)N)NC(=O)[C@H](CCCCN)NC(=O)[C@H](CCCNC(=N)N)NC(=O)[C@H](CCCCN)NC(=O)[C@@H]1CCCN1C(=O)[C@H](CCCNC(=N)N)NC(=O)[C@H](CSCC(=O)NCCOCCOCC(=O)Nc1ccc2[nH]c(=O)n(C3CCN(Cc4ccc(-c5nc6cc[nH]c(=O)c6cc5-c5ccccc5)cc4)CC3)c2c1)NC(C)=O)C(C)C)[C@@H](C)O)[C@@H](C)CC)C(=O)O` (Ac-C(X1)RPKRKRKNARVTFAEAAEII-OH), the Activity [1] was “inactive” and the Activity [2] was “Active”.
With `CC(=O)N[C@@H](CSCC(=O)NCCOCCOCCOCC(=O)N(C)CCN(C[C@@H](C(=O)N1CCN(c2ncnc3c2[C@H](C)C[C@H]3O)CC1)c1ccc(Cl)cc1)C(C)C)C(=O)N[C@@H](CCCNC(=N)N)C(=O)N[C@H](C(=O)N[C@@H](CO)C(=O)N[C@@H](C)C(=O)O)C(C)C` the Activity [3] was “inactive”, the Activity [4] was “inactive” and the Activity [5] was “Active”.
For `C=CC(=O)Nc1cc(Nc2nccc(-c3cn(C)c4ccccc34)n2)c(OC)cc1N(C)CCN1CCN(C(=O)COCCOCCOCCCCCCCl)CC1`, the Activity [6] was “Active” and the Activity [7] was “Active”.
In the case of `CC(=O)N[C@@H](CSCC(=O)NCCOCCOCC(=O)Nc1ccc2[nH]c(=O)n(C3CCN(Cc4ccc(-c5nc6cc[nH]c(=O)c6cc5-c5ccccc5)cc4)CC3)c2c1)C(=O)N[C@@H](CCCNC(=N)N)C(=O)N[C@H](C(=O)N[C@@H](CO)C(=O)N(C)[C@@H](Cc1ccccc1)C(=O)O)C(C)C`, the Activity [8] is reported as “Active”, the Activity [3] is reported as “Active” and the Activity [9] is reported as “Active”. The Activity [4] was “Active”, the Activity [10] was “Active” and the Activity [11] was “Active”. For the same compound, the Activity [12] was “Active”, the Activity [13] was “inactive” and the Activity [14] was “Active”.
With `O=C(CCC(=O)NCCOCCOCC(=O)Nc1ccc2[nH]c(=O)n(C3CCN(Cc4ccc(-c5nc6cc[nH]c(=O)c6cc5-c5ccccc5)cc4)CC3)c2c1)NCCOCCOCCCCCCCl` the Activity [15] was “Active”, the Activity [16] was “Active” and the Activity [17] was “Active”.
In the case of `CC(=O)N[C@@H](CSCC(=O)NCCOCCOCC(=O)Nc1ccc2[nH]c(=O)n(C3CCN(Cc4ccc(-c5nc6cc[nH]c(=O)c6cc5-c5ccccc5)cc4)CC3)c2c1)C(=O)N[C@@H](CCCNC(=N)N)C(=O)N[C@H](C(=O)N[C@@H](CO)C(=O)N[C@@H](C)C(=O)O)C(C)C`, the Activity [8] is reported as “inactive”, the Activity [3] is reported as “inactive” and the Activity [9] is reported as “inactive”. The Activity [4] was “inactive”, the Activity [10] was “Active” and the Activity [11] was “inactive”. The Activity [12] was “inactive” and the Activity [14] was “inactive”.
For `CC(=O)Nc1ccc2[nH]c(=O)n(C3CCN(Cc4ccc(-c5nc6cc[nH]c(=O)c6cc5-c5ccccc5)cc4)CC3)c2c1`, the Activity [18] was “Dose-dependent effect”.
